# Paper PMC4647570, “Ketoreductase TpdE from Rhodococcus jostii TMP1: characterization and application in the synthesis of chiral alcohols” (PeerJ, 2015)
# Test system: T1, TpdE
# T1 construct: C-terminal His6 tag, pET-tpdE in E. coli BL21 (DE3), Ni-chelating column, ~30 kDa on SDS-PAGE; residues T15, G16, G20, G22, N119, S148, Y161, K165
# Test: NADPH oxidation at […] nm, Michaelis-Menten fit
# Type: biochemical, Rhodococcus jostii
# Settings: 0.2 mM NADPH, 50 mM phosphate pH 7.2, 30 °C; apparent
row,SMILES,Km
1,"CCC(=O)C(=O)CC [3,4-Hexanedione]",3.3 ± 0.6 mM
2,CC(=O)C(C)(C)O [3-Hydroxy-3-methyl-2-butanone],14.6 ± 4 mM
3,CC(=O)C(C)S (stereo not drawn) [3-Mercapto-2-butanone],14.4 ± 4.8 mM
4,CC(=O)C(C)O (stereo not drawn) [Acetoin],5 ± 0.3 mM
5,CCCC(=O)OC(C)C(C)=O (stereo not drawn) [Butan-3-one-2-yl-butanoate],0.76 ± 0.1 mM

# Further lines, results first:
row,Km,SMILES
1,6.9 ± 0.9 mM,"CCCCC(=O)C(C)=O [2,3-Heptanedione]"
2,2.2 ± 0.4 mM,"CCCC(=O)C(C)=O [2,3-Hexanedione]"
3,0.98 ± 0.2 mM,"CCC(=O)C(C)=O [2,3-Pentanedione]"
4,1.9 ± 0.3 mM,CC(=O)C(C)=O [Diacetyl]
